Experimental data as given in ChEMBL document CHEMBL4680139, “Antiproliferative activity of diarylnaphthylpyrrolidine derivative via dual target inhibition” (Eur J Med Chem, 2020).
In brackets after ≈: the same amount, converted by molar mass.

Columns and labels:
MCF7 [1] = experiment: Antiproliferative activity against human MCF-7 cells assessed as inhibition of cell growth measured after 48 hrs by SRB assay; format: functional, cell-based; conditions: MCF7, 48 h
HCT-116 = experiment: Antiproliferative activity against human HCT-116 cells assessed as inhibition of cell growth measured after 48 hrs by SRB assay; format: functional, cell-based; conditions: HCT-116, 48 h
MDA-MB-231 [2] = experiment: Antiproliferative activity against human MDA-MB-231 cells assessed as inhibition of cell growth measured after 48 hrs by SRB assay; format: functional, cell-based; conditions: MDA-MB-231, 48 h
A549 = experiment: Antiproliferative activity against human A549 cells assessed as inhibition of cell growth measured after 48 hrs by SRB assay; format: functional, cell-based; conditions: A549, 48 h
THP-1 = experiment: Antiproliferative activity against human THP-1 cells assessed as inhibition of cell growth measured after 48 hrs by SRB assay; format: functional, cell-based; conditions: THP-1, 48 h
[3] = Inhibition of bovine brain tubulin polymerisation measured by turbidometric method; format: tissue-based, Bos taurus
[4] = target: DNA topoisomerase 2-alpha (Homo sapiens) (UniProt P11388); experiment: Inhibition of DNA-topoisomerase 2 in human MCF7 cells using kinetoplast DNA as substrate at 120 uM measured by ELISA; format: cell-based
MDA-MB-231 [5] = experiment: Induction of apoptosis in human MDA-MB-231 cells assessed as proportion of necrotic cells at 1 ug measured after 24 hrs by Annexin V-FITC/propidium iodide staining based flow cytometry (reference value: 0.2%); format: functional; conditions: dose 1 µg
MDA-MB-231 [6] = experiment: Induction of apoptosis in human MDA-MB-231 cells assessed as proportion of late apoptotic cells at 1 ug measured after 24 hrs by Annexin V-FITC/propidium iodide staining based flow cytometry (reference value: 0.5%); format: functional; conditions: dose 1 µg
MDA-MB-231 [7] = experiment: Induction of apoptosis in human MDA-MB-231 cells assessed as proportion of viable cells at 1 ug measured after 24 hrs by Annexin V-FITC/propidium iodide staining based flow cytometry (reference value: 99%); format: functional; conditions: dose 1 µg
MDA-MB-231 [8] = experiment: Induction of apoptosis in human MDA-MB-231 cells assessed as proportion of early apoptotic cells at 1 ug measured after 24 hrs by Annexin V-FITC/propidium iodide staining based flow cytometry (reference value: 0.2%); format: functional; conditions: dose 1 µg
MCF7 [9] = experiment: Antiproliferative activity against human MCF-7 cells assessed as inhibition of colony formation measured after 3 weeks by crystal violet staining based soft agar colony formation assay; format: functional, cell-based; conditions: MCF7, 504 h

Sequence of DNA topoisomerase 2-alpha (Homo sapiens) (P11388 whole entry): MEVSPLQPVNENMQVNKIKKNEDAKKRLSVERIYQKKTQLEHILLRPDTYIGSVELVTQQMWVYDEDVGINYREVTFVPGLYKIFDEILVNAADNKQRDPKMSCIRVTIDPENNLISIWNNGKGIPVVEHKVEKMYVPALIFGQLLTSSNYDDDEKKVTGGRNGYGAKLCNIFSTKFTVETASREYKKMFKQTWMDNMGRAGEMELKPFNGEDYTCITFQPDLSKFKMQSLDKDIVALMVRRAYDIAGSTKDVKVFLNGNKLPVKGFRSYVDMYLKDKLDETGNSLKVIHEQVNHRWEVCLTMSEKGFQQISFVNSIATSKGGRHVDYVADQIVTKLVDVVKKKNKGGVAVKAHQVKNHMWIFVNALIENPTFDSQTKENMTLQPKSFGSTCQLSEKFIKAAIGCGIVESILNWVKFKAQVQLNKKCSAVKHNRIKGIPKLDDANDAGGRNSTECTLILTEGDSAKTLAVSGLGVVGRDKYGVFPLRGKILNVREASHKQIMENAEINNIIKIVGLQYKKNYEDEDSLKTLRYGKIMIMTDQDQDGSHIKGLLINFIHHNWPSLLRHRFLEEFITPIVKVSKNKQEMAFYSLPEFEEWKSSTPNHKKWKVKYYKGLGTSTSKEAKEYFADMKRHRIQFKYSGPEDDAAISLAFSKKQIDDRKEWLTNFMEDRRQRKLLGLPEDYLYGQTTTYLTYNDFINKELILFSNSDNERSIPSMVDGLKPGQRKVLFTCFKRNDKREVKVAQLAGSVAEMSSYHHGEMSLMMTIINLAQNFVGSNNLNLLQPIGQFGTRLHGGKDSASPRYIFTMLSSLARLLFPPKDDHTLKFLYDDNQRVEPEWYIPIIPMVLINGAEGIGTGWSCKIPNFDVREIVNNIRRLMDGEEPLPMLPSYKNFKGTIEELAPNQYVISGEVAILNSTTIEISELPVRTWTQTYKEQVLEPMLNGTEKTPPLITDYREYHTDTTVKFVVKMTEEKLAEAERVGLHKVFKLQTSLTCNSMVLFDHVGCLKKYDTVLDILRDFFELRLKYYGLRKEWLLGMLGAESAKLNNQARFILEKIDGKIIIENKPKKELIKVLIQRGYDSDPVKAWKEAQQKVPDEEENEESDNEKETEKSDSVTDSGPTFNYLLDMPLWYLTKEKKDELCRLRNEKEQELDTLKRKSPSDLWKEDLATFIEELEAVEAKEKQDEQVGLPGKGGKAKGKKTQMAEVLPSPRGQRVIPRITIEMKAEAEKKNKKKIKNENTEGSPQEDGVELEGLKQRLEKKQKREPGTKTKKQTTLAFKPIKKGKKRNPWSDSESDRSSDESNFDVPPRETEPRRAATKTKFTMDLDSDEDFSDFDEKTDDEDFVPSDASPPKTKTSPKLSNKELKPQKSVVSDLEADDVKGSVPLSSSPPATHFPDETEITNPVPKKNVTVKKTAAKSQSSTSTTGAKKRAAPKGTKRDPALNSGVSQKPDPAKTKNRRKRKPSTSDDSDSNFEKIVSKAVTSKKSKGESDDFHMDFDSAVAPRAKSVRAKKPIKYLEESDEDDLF

| SMILES | IC50 (MCF7 [1]) | IC50 (HCT-116) | IC50 (MDA-MB-231 [2]; read-out: IC50) | IC50 (A549) | IC50 (THP-1) | IC50 [3] | inhibition [4] | Activity (MDA-MB-231 [5]) | Activity (MDA-MB-231 [6]) | IC50 (MDA-MB-231 [2]) | Activity (MDA-MB-231 [7]) | Activity (MDA-MB-231 [8]) | IC50 (MCF7 [9]) |
| --- | --- | --- | --- | --- | --- | --- | --- | --- | --- | --- | --- | --- | --- |
| COc1ccc(C(c2ccc(OCCN(C)C)cc2)c2cccc3ccccc23)c(OC)c1OC (stereo unspecified) | 15.2 µM | 3.3 µM | 14.3 µM | 10.2 µM | 7.95 µM | – | – | – | – | – | – | – | – |
| COc1ccc(/C(=N/OCC(=O)O)c2cccc3ccccc23)c(OC)c1OC | > 20 µM | 4.98 µM | > 20 µM | 17.2 µM | > 20 µM | – | – | – | – | – | – | – | – |
| CCOC(=O)C(C)C(O)(c1ccc(OC)c(OC)c1OC)c1cccc2ccccc12 (stereo unspecified) | > 20 µM | > 20 µM | > 20 µM | 4 µM | > 20 µM | – | – | – | – | – | – | – | – |
| COc1ccc(/C(=N/O)c2cccc3ccccc23)c(OC)c1OC | > 20 µM | 5.88 µM | 2.5 µM | 13.1 µM | > 20 µM | 5.58 µM | – | – | – | – | – | – | – |
| COc1ccc(C(OCc2ccccc2)c2cccc3ccccc23)c(OC)c1OC (stereo unspecified) | 14.1 µM | > 20 µM | > 20 µM | 13.5 µM | > 20 µM | – | – | – | – | – | – | – | – |
| C=CCOC(c1ccc(OC)c(OC)c1OC)c1cccc2ccccc12 (stereo unspecified) | > 20 µM | > 20 µM | > 20 µM | 9.71 µM | > 20 µM | – | – | – | – | – | – | – | – |
| CCOC(=O)/C=C/CO/N=C(/c1ccc(OC)c(OC)c1OC)c1cccc2ccccc12 | > 20 µM | > 20 µM | > 20 µM | 14 µM | > 20 µM | – | – | – | – | – | – | – | – |
| COc1ccc(/C(=C/c2ccc(F)cc2)c2cccc3ccccc23)c(OC)c1OC | 10.5 µM | > 20 µM | > 20 µM | 18.6 µM | 18.9 µM | – | – | – | – | – | – | – | – |
| CCOC(=O)CO/N=C(/c1ccc(OC)c(OC)c1OC)c1cccc2ccccc12 | > 20 µM | 3.36 µM | 16.4 µM | 6.72 µM | > 20 µM | – | – | – | – | – | – | – | – |
| COc1ccc(C(O)(Cc2ccccc2)c2cccc3ccccc23)c(OC)c1OC (stereo unspecified) | 10.6 µM | > 20 µM | 4.78 µM | > 20 µM | 12.4 µM | 6.02 µM | – | – | – | – | – | – | – |
| COc1cc(COC(c2ccc(OC)c(OC)c2OC)c2cccc3ccccc23)cc(OC)c1 (stereo unspecified) | > 20 µM | > 20 µM | > 20 µM | 17.5 µM | > 20 µM | – | – | – | – | – | – | – | – |
| COc1ccc(C(c2ccccc2O)c2cccc3ccccc23)c(OC)c1OC (stereo unspecified) | 16.6 µM | > 20 µM | 17.7 µM | 13.6 µM | > 20 µM | – | – | – | – | – | – | – | – |
| COc1ccc(C(c2ccc(OCCO)cc2)c2cccc3ccccc23)c(OC)c1OC (stereo unspecified) | > 20 µM | > 20 µM | > 20 µM | > 20 µM | 16.6 µM | – | – | – | – | – | – | – | – |
| C=CCC(O)(c1ccc(OC)c(OC)c1OC)c1cccc2ccccc12 (stereo unspecified) | > 20 µM | > 20 µM | > 20 µM | 10.7 µM | > 20 µM | – | – | – | – | – | – | – | – |
| COc1ccc(C(c2ccc(OCCN3CCCCC3)cc2)c2cccc3ccccc23)c(OC)c1OC (stereo unspecified) | 15.4 µM | 11.9 µM | 15.2 µM | 15 µM | 16.6 µM | – | – | – | – | – | – | – | – |
| COc1ccc(/C(=N/OC(C)=O)c2cccc3ccccc23)c(OC)c1OC | > 20 µM | 4.98 µM | 17 µM | 17.2 µM | > 20 µM | – | – | – | – | – | – | – | – |
| COc1ccc(C(O)(C/C=C\c2ccccc2)c2cccc3ccccc23)c(OC)c1OC (stereo unspecified) | 10.2 µM | > 20 µM | 12.8 µM | 17.6 µM | 19.4 µM | – | – | – | – | – | – | – | – |
| COc1cc([C@@H]2c3cc4c(cc3[C@H](O)[C@H]3COC(=O)[C@H]23)OCO4)cc(OC)c1OC [PODOFILOX] | 10.9 µM | > 20 µM | 5.73 µM | 7.34 µM | 19.6 µM | 0.72 µM | 26.9% | – | – | – | – | – | – |

| SMILES | IC50 (MCF7 [1]) | IC50 (HCT-116) | IC50 (MDA-MB-231 [2]; read-out: IC50) | IC50 (A549) | IC50 (THP-1) | IC50 [3] | inhibition [4] | Activity (MDA-MB-231 [5]) | Activity (MDA-MB-231 [6]) | IC50 (MDA-MB-231 [2]) | Activity (MDA-MB-231 [7]) | Activity (MDA-MB-231 [8]) | IC50 (MCF7 [9]) |
| --- | --- | --- | --- | --- | --- | --- | --- | --- | --- | --- | --- | --- | --- |
| CCN(CC)CCOc1ccc(C(c2ccc(OC)c(OC)c2OC)c2cccc3ccccc23)cc1 (stereo unspecified) | 15.5 µM | 8.34 µM | 15.6 µM | 11.5 µM | 13.9 µM | – | – | – | – | – | – | – | – |
| COc1ccc(C(c2ccc(O)cc2)c2cccc3ccccc23)c(OC)c1OC (stereo unspecified) | 17.5 µM | 16 µM | 17.4 µM | 16.4 µM | 9.45 µM | – | – | – | – | – | – | – | – |
| COc1ccc(C(OCCN(C)C)c2cccc3ccccc23)c(OC)c1OC (stereo unspecified) | 11.1 µM | > 20 µM | > 20 µM | 17.9 µM | > 20 µM | – | – | – | – | – | – | – | – |
| COc1ccc(C(c2ccc(OCCN3CCCC3)cc2)c2cccc3ccccc23)c(OC)c1OC (stereo unspecified) | 15.3 µM | 10.8 µM | 14.4 µM | 15.8 µM | 5.4 µM | – | – | – | – | – | – | – | – |
| COc1cccc2c1C(=O)c1c(O)c3c(c(O)c1C2=O)C[C@@](O)(C(=O)CO)C[C@@H]3O[C@H]1C[C@H](N)[C@H](O)[C@H](C)O1 [DOXORUBICIN] | – | – | – | 0.63 µM | – | – | – | 80.1% | 6.2% | 5.12 µM | 13.7% | 0.1% | – |
| C=C(c1ccc(OC)c(OC)c1OC)c1cccc2ccccc12 | 11.7 µM | > 20 µM | 4.66 µM | 19.8 µM | 12.5 µM | 9.03 µM | – | – | – | – | – | – | – |
| COc1ccc(C(c2ccc(OC(C)CN(C)C)cc2)c2cccc3ccccc23)c(OC)c1OC (stereo unspecified) | 13.1 µM | 8.41 µM | 4.34 µM | 11.4 µM | 15 µM | – | – | – | – | – | – | – | – |
| CC/C(=C(\c1ccccc1)c1ccc(OCCN(C)C)cc1)c1ccccc1 [TAMOXIFEN] | – | 45 µM | > 20 µM | 10.1 µM | 11.9 µM | – | – | – | – | – | – | – | 1.31 mg/L (≈ 3.53 µM) |
| COC(=O)c1ccc(COC(c2ccc(OC)c(OC)c2OC)c2cccc3ccccc23)cc1 (stereo unspecified) | > 20 µM | > 20 µM | > 20 µM | 12 µM | > 20 µM | – | – | – | – | – | – | – | – |
| COc1ccc(C(O)(Cc2ccc(C)cc2)c2cccc3ccccc23)c(OC)c1OC (stereo unspecified) | > 20 µM | > 20 µM | > 20 µM | 18.7 µM | > 20 µM | – | – | – | – | – | – | – | – |
| COc1ccc(C(c2ccc(OCC(=O)O)cc2)c2cccc3ccccc23)c(OC)c1OC (stereo unspecified) | > 20 µM | 5.02 µM | > 20 µM | 16.4 µM | > 20 µM | – | – | – | – | – | – | – | – |
| COc1ccc(/C(=C/c2ccc(C)cc2)c2cccc3ccccc23)c(OC)c1OC | > 20 µM | > 20 µM | 8.31 µM | 19.6 µM | > 20 µM | – | – | – | – | – | – | – | – |
| CCOC(=O)CCO/N=C(/c1ccc(OC)c(OC)c1OC)c1cccc2ccccc12 | > 20 µM | 10 µM | 15.2 µM | 19.6 µM | > 20 µM | – | – | – | – | – | – | – | – |
| COc1ccc(C(OCc2ccc(C)cc2)c2cccc3ccccc23)c(OC)c1OC (stereo unspecified) | 10.7 µM | > 20 µM | > 20 µM | 15.7 µM | > 20 µM | – | – | – | – | – | – | – | – |
| COc1ccc(C(O)(Cc2ccc(F)cc2)c2cccc3ccccc23)c(OC)c1OC (stereo unspecified) | 7.56 µM | > 20 µM | 5.44 µM | 5.94 µM | 5.86 µM | – | – | – | – | – | – | – | – |
| COc1ccc(C(c2ccccc2OCCN2CCCCC2)c2cccc3ccccc23)c(OC)c1OC (stereo unspecified) | 12.4 µM | 4.63 µM | 7.18 µM | 9.86 µM | 19.1 µM | – | – | – | – | – | – | – | – |
| COc1ccc(/C(=C\c2ccc(F)cc2)c2cccc3ccccc23)c(OC)c1OC | 17.7 µM | > 20 µM | 16.2 µM | > 20 µM | 9.08 µM | – | – | – | – | – | – | – | – |
